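Interpolation was linear, between the two tested concentrations surrounding the appropriate level; five concentrations were tested over 48 hours in 96-well plates. At the GI50, growth is halved.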 Active and inactive are the calls of the source. Rule as the data show it: active = GI50 up to about 1.1 µM and inactive = higher.
Tests used:
Test in all cases: NCI-60 cell line screen, 48 h
EKVX = tested on: EKVX
SK-MEL-5 = tested on: SK-MEL-5
SF-295 = tested on: SF-295
SK-OV-3 = tested on: SK-OV-3
IGROV-1 = tested on: IGROV-1
SW-620 = tested on: SW-620
M14 = tested on: M14
UACC-257 = tested on: UACC-257
786-0 = tested on: 786-0
TK-10 = tested on: TK-10
RXF 393 = tested on: RXF 393
HCT-15 = tested on: HCT-15
NCI-H226 = tested on: NCI-H226
SNB-75 = tested on: SNB-75
KM12 = tested on: KM12
RPMI-8226 = tested on: RPMI-8226
CAKI-1 = tested on: CAKI-1
SK-MEL-2 = tested on: SK-MEL-2

| Structure (SMILES) | GI50 (EKVX) | GI50 (SK-MEL-5) | GI50 (SF-295) | GI50 (SK-OV-3) | GI50 (IGROV-1) | GI50 (SW-620) | GI50 (M14) | GI50 (UACC-257) | GI50 (786-0) | GI50 (TK-10) | GI50 (RXF 393) | GI50 (HCT-15) [µM] | GI50 (NCI-H226) | GI50 (SNB-75) | GI50 (KM12) | GI50 (RPMI-8226) | GI50 (CAKI-1) | GI50 (SK-MEL-2) |
| --- | --- | --- | --- | --- | --- | --- | --- | --- | --- | --- | --- | --- | --- | --- | --- | --- | --- | --- |
| N#C/N=C(\NCCc1c[nH]c2ccccc12)NCc1ccccc1 | 45.6 µM (inactive) | 24.4 µM (inactive) | 36 µM (inactive) | > 100 µM (inactive) | > 100 µM (inactive) | > 100 µM (inactive) | 51.1 µM (inactive) | 37 µM (inactive) | 25.5 µM (inactive) | 98.4 µM (inactive) | > 100 µM (inactive) | 49.4 | 34.4 µM (inactive) | 43.8 µM (inactive) | 36.4 µM (inactive) | 42.6 µM (inactive) |  |  |
| Clc1cc(Cc2cc(Cl)c(Cl)c3c2OCOC3)c2c(c1Cl)COCO2 |  | 43.2 µM (inactive) | 26.2 µM (inactive) | 23.3 µM (inactive) | 40.6 µM (inactive) | > 100 µM (inactive) | 38.4 µM (inactive) | 94 µM (inactive) | 25.1 µM (inactive) | 29.9 µM (inactive) | 31.7 µM (inactive) | > 100 | 28.1 µM (inactive) | 27.5 µM (inactive) | > 100 µM (inactive) | 33.4 µM (inactive) | 22.3 µM (inactive) | 55.5 µM (inactive) |
| COc1cc(Br)c(CC2=NCCc3cc(OC)c(OC)cc32)cc1OC | 35.7 µM (inactive) | 16.7 µM (inactive) | 0.7 µM (active) | 24.6 µM (inactive) | 12.2 µM (inactive) | 18 µM (inactive) | 12.9 µM (inactive) | 16.6 µM (inactive) | 16.7 µM (inactive) | 5.65 µM (inactive) |  | 31 | 11 µM (inactive) | 36.3 µM (inactive) | 20.9 µM (inactive) | 18.3 µM (inactive) | 15.9 µM (inactive) | 53.1 µM (inactive) |
| O=C(c1cccs1)N(C(=S)N1CCN(c2ccccn2)CC1)C1CCCCC1 |  | 31.3 µM (inactive) | > 100 µM (inactive) | > 100 µM (inactive) | > 100 µM (inactive) | > 100 µM (inactive) | 76.4 µM (inactive) | 50.9 µM (inactive) | > 100 µM (inactive) | > 100 µM (inactive) | 22.5 µM (inactive) | 78 | 19.5 µM (inactive) | > 100 µM (inactive) | 60.5 µM (inactive) | 43.1 µM (inactive) | 76.2 µM (inactive) | 58.6 µM (inactive) |
| O=C(CSc1nnc(Cc2ccccc2)o1)Nc1ccccc1Cl |  | > 100 µM (inactive) | > 100 µM (inactive) | > 100 µM (inactive) | > 100 µM (inactive) | > 100 µM (inactive) | > 100 µM (inactive) |  | > 100 µM (inactive) | > 100 µM (inactive) |  | > 100 | > 100 µM (inactive) |  | > 100 µM (inactive) | > 100 µM (inactive) | > 100 µM (inactive) | > 100 µM (inactive) |
| COc1ccc(C(CCC(C)=O)C(=O)O)cc1OC (configuration not stated) | > 100 µM (inactive) | > 100 µM (inactive) | > 100 µM (inactive) |  | > 100 µM (inactive) | > 100 µM (inactive) |  | > 100 µM (inactive) | > 100 µM (inactive) | > 100 µM (inactive) | > 100 µM (inactive) | > 100 |  | > 100 µM (inactive) | > 100 µM (inactive) | > 100 µM (inactive) | > 100 µM (inactive) | > 100 µM (inactive) |
| Cc1cc(O)c2c(c1)OC1(C)CCC3C(C)(C)CCCC34COC2C14 (configuration not stated) | 11.9 µM (inactive) | 14.4 µM (inactive) | 15.1 µM (inactive) |  | 19.7 µM (inactive) | 15.5 µM (inactive) | 14.4 µM (inactive) | 15.5 µM (inactive) | 14.4 µM (inactive) |  |  |  | 14 µM (inactive) |  | 16.8 µM (inactive) | > 10 µM (inactive) | 18.3 µM (inactive) |  |
| Cc1cc2nc3c(C(OC4OC(CO)C(O)C(O)C4O)C(O)CO)nn(-c4ccccc4)c3nc2cc1C (configuration not stated) | > 100 µM (inactive) |  | > 100 µM (inactive) | > 100 µM (inactive) |  |  | > 100 µM (inactive) | > 100 µM (inactive) | > 100 µM (inactive) | > 100 µM (inactive) | > 100 µM (inactive) | > 100 |  | 64 µM (inactive) | > 100 µM (inactive) | > 100 µM (inactive) |  |  |
| O=[N+]([O-])c1ccc(OCCNc2cccc3ccccc23)cc1 | > 100 µM (inactive) | 30.5 µM (inactive) | > 100 µM (inactive) | > 100 µM (inactive) | > 100 µM (inactive) | 57.1 µM (inactive) | > 100 µM (inactive) | > 100 µM (inactive) | > 100 µM (inactive) | > 100 µM (inactive) |  | 9.73 | > 100 µM (inactive) | 89.7 µM (inactive) | > 100 µM (inactive) | 24.7 µM (inactive) | > 100 µM (inactive) | > 100 µM (inactive) |

Reference: ChEMBL document CHEMBL1201862, “PubChem BioAssay data set” (2004)
